Results as given in patent US11497813B2, “Bortezomib conjugates and methods using same” (Frank EBETINO et al., priority 2015, dated 2022).
Entries after “also recorded” stand apart in the source; their conditions may differ.

Key:
mouse MPCs = assay: Osteoblast differentiation of mouse MPCs (ALP staining); assay type: cell-based
Method: FIG. 5A is a scheme of an exemplary synthesis of compound BP-Btz1. FIG. 5B is a series of images of bone slices pre-incubated with 1 μM BP-Btz1, Btz, or bisphosphonate (BP) overnight. Drug solutions were removed and bone slices were washed with PBS extensively. […] (BM) cells from UB^G76V-GFP mice were cultured on bone slices in the presence of M-CSF and RANKL for 9 days. Top images (a): GFP^+ cells were observed under a fluorescence microscope and GFP signal intensity was quantified. Middle images (b): bone slices were fixed and subjected to TRAP staining for osteoclasts (OCs). OC #/slice were counted. Bottom images (c): cells were removed from slices. Toluidine blue staining was performed and pit areas/slice were counted. […] The ALP^+ areas were measured by Image J. *P<0.05 vs. Btz-treated cells.
MPCs are cultured in the OB differentiation medium plus or minus Btz, BT-Btz1 or BT-Btz2 (0.1, 0.5, 1, 5, 10 μM) for 1 to 3 weeks. […] The area of ALP+ and mineralized bone nodule is assessed. The expression levels of OB marker genes (ALP, osteocalcin, Runx2) is measured.
1. […] Following proteasome inhibitor administration, Ub^G76V accumulates and GFP fluorescence is readily apparent. GFP^+ OCs were detected at 4 and 8 hrs after adding Btz to OC cultures, which disappeared at 24 hrs. […] The number and area of OCs and resorption pits are assessed. […]

5TGM1-GFP myeloma cells = assay: Multiple myeloma model, 5TGM1-GFP myeloma cells in NIH-III nude mice; assay type: in vivo, mouse
Source text: FIG. 25A depicts the groups and treatment used in the experimental examples. FIG. 25B depicts a table of clinical observations. FIG. 25C depicts images of GFP imaging showing the distribution of myeloma cells. FIG. 25D is a table of experimental data showing blood IgG2b levels. FIG. 25E is a table of experimental data showing osteoblast differentiation.
A MM model was generated using tail vein injection of 5TGM1-GFP myeloma cells into 6-week-old female NIH-III nude mice. Tumor burden and bone volume were examined.

fractured aged mice = assay: Tibial fracture healing in aged (20-m-old) mice; assay type: in vivo, mouse
Method: 20-m-old B6 mice had tibial fractures and were given Btz (0.6 mg/kg body weight, i.p.) or saline (Ctl) at day 1, 3, and 5 post-fracture 3 times. FIG. 8A is a graph depicting callus volumes for mice subjected to μCT at day 28. FIG. 8B is a graph depicting experimental data from mice subjected to bio-mechanical testing at day 28. FIG. 8C is a graph depicting experimental data of mice sacrificed for histological analyses at day 28. Values are the mean of 6 mice. *P<0.05 vs. saline-treated mice. FIG. 8D is a graph of data from 3-m-old (young) and 20-m-old (aged) mice after tibial fracture surgery and sacrificed at day 14 post-fracture. The % of CD45^−CD105^+Sca-1^+ cells in fracture callus were determined by flow cytometry as depicted in FIG. 7B. Values are the mean of 4 mice. *P<0.05 vs. saline-treated aged mice. #P<0.05 vs. young mice.

thymus = conditions: mice, cited from earlier work
[1] = myeloma mice, compared with Btz

Row | Structure (SMILES) | osteoblast differentiation (mouse MPCs) | peripheral blood platelet and cell numbers (blood counts) (5TGM1-GFP myeloma cells; FIG. 27, compared with Btz) | osteoblast colonies from bone marrow cells (5TGM1-GFP myeloma cells; bone marrow cells from treated myeloma mice) | myeloma-induced bone loss (5TGM1-GFP myeloma cells; [1]) | tumor burden (5TGM1-GFP myeloma cells; [1]) | fracture repair (fractured aged mice; 20-m-old B6 mice, 0.6 mg/kg i.p. day 1, 3, 5) | MPCs (fractured aged mice; fractured aged mice) | bone strength (fractured aged mice; fractured aged mice) | callus formation (fractured aged mice; fractured aged mice) | splenocytes numbers (thymus; Btz injection) | total and CD4+ and CD8+ thymocyte numbers (thymus; Btz injection) | number of T cells in the thymus (thymus; as early as 3 days after administration)
1 | CC(C)C[C@H](NC(=O)[C@H](Cc1ccccc1)NC(=O)c1cnccn1)B1OCCN(CCOC(=O)NC(P(=O)(O)O)P(=O)(O)O)CCO1 [BP-Btz1] | stimulates osteoblast differentiation | less deleterious effects than Btz; also recorded: reduces side effects on blood counts compared with Btz | form more osteoblast colonies | reduces tumor burden and myeloma-induced bone loss more effectively than Btz; also recorded: prevents myeloma-induced bone loss more effectively than Btz | reduces tumor burden and myeloma-induced bone loss more effectively than Btz |  |  |  |  |  |  | 
2 | CC(C)C[C@H](NC(=O)[C@H](Cc1ccccc1)NC(=O)c1cnccn1)B(O)O [Btz, [(1R)-3-methyl-1-[[(2S)-1-oxo-3-phenyl-2[(pyrazinylcarbonyl)amino]propyl]amino]butyl] boronic acid] |  |  |  |  |  | promotes fracture repair | increased | increased | increased | not | markedly decreases | significantly reduces
